# Experimental data as given in publication PMC5131266 (Scientific Reports, 2016).
# B1: 10E8 Fab (Fab, V domains shown)
# VH: EVQLVESGGGLVKPGGSLRLSCSASGFDFDNAWMTWVRQPPGKGLEWVGRITGPGEGWSVDYAAPVEGRFTISRLNSINFLYLEMNNLRMEDSGLYFCARTGKYYDFWSGYPPGEEYFQDWGRGTLVTVSS
# VL: SYELTQETGVSVALGRTVTITCRGDSLRSHYASWYQKKPGQAPILLFYGKNNRPSGVPDRFSGSASGNRASLTISGAQAEDDAEYYCSSRDKSGSRLSVFGGGTKLTVL
# notes: also called Fab 10E8; WT
# Key:
# MPER-TM1 = test: Cell-lysate ELISA, MPER-TM1; type: binding, HIV-1; details: 293T cell lysates, 20 nM IgG or Fab, normalized to 20 nM 17/9 IgG
# MPER-PDGFR = test: Cell-lysate ELISA, MPER-PDGFR; type: binding, HIV-1; details: 293T cell lysates, 20 nM IgG or Fab, normalized to 20 nM 17/9 IgG
# [1] = test system: SIVs that infect chimpanzees and gorillas; details: cited from earlier work
# Source text: (§1) The 10E8 antibody achieves potent and broad HIV-1 neutralization by targeting the membrane-proximal external region of gp41 (MPER)[1][2]. […] The exceptionally high degree of conservation of the MPER sequence[4][5] justifies immunotherapeutic approaches based on the 10E8 antibody.
# [2] = test system: simian immunodeficiency virus-HIV chimera; details: rhesus macaques; cited from earlier work
# Source text: as §1
# HIV-1 = details: cited from earlier work
# [3] = molecular target: HIV-1 Env of JRCSF on pseudovirus particles (HIV-1 group M subtype B, isolate JRCSF, UniProt P20871); test: far-Western, overlay or dot blot; dot blot: decreasing amounts of PsV spotted on nitrocellulose, probed with Fab (0.2 ug/ml) in 5% milk in PBS, 1 h, room temperature; details: one partner purified
Molecule,binding to MPER-TM1 (MPER-TM1),binding to MPER-PDGFR (MPER-PDGFR),neutralization potency [1],protection against infection [2],mean IC50 (HIV-1),binding result [3]
10E8 WT Fab: recombinant unmodified Fab of anti-HIV-1 gp41 MPER antibody 10E8,comparable degree of binding,poor ligand,–,–,–,–
"10E8 IgG: broadly neutralizing anti-HIV-1 gp41 MPER antibody 10E8, IgG",bind tightly,poor ligand,nanomolar potency,complete protection,below 1 μg/mL,–
B1,–,–,–,–,–,binds
